Measurements published in ChEMBL document CHEMBL1140970, “Synthesis and in vitro anti-Helicobacter pylori activity of N-[5-(5-nitro-2-heteroaryl)-1,3,4-thiadiazol-2-yl]thiomorpholines and related compounds” (2008).

The compounds below were run on Helicobacter pylori (assay: Antibacterial activity against metronidazole-sensitive Helicobacter pylori at 16 ug/disk after 3 to 5 days by filter paper disk diffusion method). Conditions: read-out: IZ.
Assay type: functional
For `O=[N+]([O-])c1ccc(-c2nnc(N3CCCCC3)s2)s1`, the zone of inhibition at 16 µg/disc was 6 mm.
Work on `O=[N+]([O-])c1ccc(-c2nnc(N3CCOCC3)s2)s1` yielded a zone of inhibition at 16 µg/disc of 6 mm.
Work on `O=[N+]([O-])c1ccc(-c2nnc(N3CCOCC3)s2)o1` yielded a zone of inhibition at 16 µg/disc of 36 mm.
With `O=[N+]([O-])c1ccc(-c2nnc(N3CCCCC3)s2)o1` the zone of inhibition at 16 µg/disc was 32 mm.
In the case of `Cn1c([N+](=O)[O-])cnc1-c1nnc(N2CCOCC2)s1`, the zone of inhibition at 16 µg/disc is reported as 31 mm.
`Cn1c([N+](=O)[O-])cnc1-c1nnc(N2CC[S+]([O-])CC2)s1` showed a zone of inhibition at 16 µg/disc of 19 mm.
With `O=[N+]([O-])c1ccc(-c2nnc(N3CCS(=O)(=O)CC3)s2)s1` the zone of inhibition at 16 µg/disc was 6 mm.
For `Cn1c([N+](=O)[O-])cnc1-c1nnc(N2CCSCC2)s1`, the zone of inhibition at 16 µg/disc was 31 mm.

Each compound was assayed on Helicobacter pylori (assay: Antibacterial activity against Helicobacter pylori clinical isolates at 4 ug/disk after 3 to 5 days by filter paper disk diffusion method). Conditions: read-out: IZ.
Assay type: functional
For `O=[N+]([O-])c1ccc(-c2nnc(N3CCOCC3)s2)o1`, the zone of inhibition at 4 µg/disc was 28.4 mm.
For `O=[N+]([O-])c1ccc(-c2nnc(N3CCCCC3)s2)o1`, the zone of inhibition at 4 µg/disc was 27.4 mm.
`Cn1c([N+](=O)[O-])cnc1-c1nnc(N2CCOCC2)s1` showed a zone of inhibition at 4 µg/disc of 22.5 mm.
`Cn1c([N+](=O)[O-])cnc1-c1nnc(N2CCSCC2)s1` was tested, and the zone of inhibition at 4 µg/disc was 23.7 mm.

Each compound was assayed on Helicobacter pylori (assay: Antibacterial activity against metronidazole-sensitive Helicobacter pylori at 8 ug/disk after 3 to 5 days by filter paper disk diffusion method). Conditions: read-out: IZ.
Assay type: functional
With `O=[N+]([O-])c1ccc(-c2nnc(N3CCCCC3)s2)s1` the zone of inhibition at 8 µg/disc was 6 mm.
For `O=[N+]([O-])c1ccc(-c2nnc(N3CCOCC3)s2)s1`, the zone of inhibition at 8 µg/disc was 6 mm.
In the case of `O=[N+]([O-])c1ccc(-c2nnc(N3CCOCC3)s2)o1`, the zone of inhibition at 8 µg/disc is reported as 33 mm.
`O=[N+]([O-])c1ccc(-c2nnc(N3CCCCC3)s2)o1` was tested, and the zone of inhibition at 8 µg/disc was 28 mm.
`Cn1c([N+](=O)[O-])cnc1-c1nnc(N2CCOCC2)s1` was tested, and the zone of inhibition at 8 µg/disc was 25 mm.
In the case of `Cn1c([N+](=O)[O-])cnc1-c1nnc(N2CC[S+]([O-])CC2)s1`, the zone of inhibition at 8 µg/disc is reported as 6 mm.
In the case of `O=[N+]([O-])c1ccc(-c2nnc(N3CCS(=O)(=O)CC3)s2)s1`, the zone of inhibition at 8 µg/disc is reported as 6 mm.
In the case of `Cn1c([N+](=O)[O-])cnc1-c1nnc(N2CCSCC2)s1`, the zone of inhibition at 8 µg/disc is reported as 27 mm.

Each compound was assayed on Helicobacter pylori (assay: Antibacterial activity against Helicobacter pylori clinical isolates at 1 ug/disk after 3 to 5 days by filter paper disk diffusion method). Conditions: read-out: IZ.
Assay type: functional
Compound `O=[N+]([O-])c1ccc(-c2nnc(N3CCOCC3)s2)o1` has a zone of inhibition at 1 µg/disc of 17.5 mm.
For `O=[N+]([O-])c1ccc(-c2nnc(N3CCCCC3)s2)o1`, the zone of inhibition at 1 µg/disc was 19 mm.
Compound `Cn1c([N+](=O)[O-])cnc1-c1nnc(N2CCOCC2)s1` has a zone of inhibition at 1 µg/disc of 19.4 mm.
`Cn1c([N+](=O)[O-])cnc1-c1nnc(N2CCSCC2)s1` was tested, and the zone of inhibition at 1 µg/disc was 15.6 mm.

The compounds below were run on Helicobacter pylori (assay: Antibacterial activity against Helicobacter pylori clinical isolates at 8 ug/disk after 3 to 5 days by filter paper disk diffusion method). Conditions: read-out: IZ.
Assay type: functional
`O=[N+]([O-])c1ccc(-c2nnc(N3CCOCC3)s2)o1` was tested, and the zone of inhibition at 8 µg/disc was 32.1 mm.
`O=[N+]([O-])c1ccc(-c2nnc(N3CCCCC3)s2)o1` showed a zone of inhibition at 8 µg/disc of 30.5 mm.
Work on `Cn1c([N+](=O)[O-])cnc1-c1nnc(N2CCOCC2)s1` yielded a zone of inhibition at 8 µg/disc of 27.6 mm.
Work on `Cn1c([N+](=O)[O-])cnc1-c1nnc(N2CCSCC2)s1` yielded a zone of inhibition at 8 µg/disc of 27.4 mm.

Each compound was assayed on Helicobacter pylori (assay: Antibacterial activity against metronidazole-sensitive Helicobacter pylori at 32 ug/disk after 3 to 5 days by filter paper disk diffusion method). Conditions: read-out: IZ.
Assay type: functional
Work on `O=[N+]([O-])c1ccc(-c2nnc(N3CCCCC3)s2)s1` yielded a zone of inhibition at 32 µg/disc of 6 mm.
For `O=[N+]([O-])c1ccc(-c2nnc(N3CCOCC3)s2)s1`, the zone of inhibition at 32 µg/disc was 15 mm.
For `O=[N+]([O-])c1ccc(-c2nnc(N3CCOCC3)s2)o1`, the zone of inhibition at 32 µg/disc was 42 mm.
`O=[N+]([O-])c1ccc(-c2nnc(N3CCCCC3)s2)o1` gave a zone of inhibition at 32 µg/disc of 35 mm.
In the case of `Cn1c([N+](=O)[O-])cnc1-c1nnc(N2CCOCC2)s1`, the zone of inhibition at 32 µg/disc is reported as 32 mm.
Work on `Cn1c([N+](=O)[O-])cnc1-c1nnc(N2CC[S+]([O-])CC2)s1` yielded a zone of inhibition at 32 µg/disc of 25 mm.
`O=[N+]([O-])c1ccc(-c2nnc(N3CCS(=O)(=O)CC3)s2)s1` was tested, and the zone of inhibition at 32 µg/disc was 16 mm.
With `Cn1c([N+](=O)[O-])cnc1-c1nnc(N2CCSCC2)s1` the zone of inhibition at 32 µg/disc was 34 mm.

The compounds below were run on Helicobacter pylori (assay: Antibacterial activity against metronidazole-resistant Helicobacter pylori at 8 ug/disk after 3 to 5 days by filter paper disk diffusion method). Conditions: read-out: IZ.
Assay type: functional
`O=[N+]([O-])c1ccc(-c2nnc(N3CCCCC3)s2)s1` was tested, and the zone of inhibition at 8 µg/disc was 6 mm.
With `O=[N+]([O-])c1ccc(-c2nnc(N3CCOCC3)s2)s1` the zone of inhibition at 8 µg/disc was 6 mm.
Compound `O=[N+]([O-])c1ccc(-c2nnc(N3CCOCC3)s2)o1` has a zone of inhibition at 8 µg/disc of 30 mm.
Compound `O=[N+]([O-])c1ccc(-c2nnc(N3CCCCC3)s2)o1` has a zone of inhibition at 8 µg/disc of 27 mm.
`Cn1c([N+](=O)[O-])cnc1-c1nnc(N2CCOCC2)s1` showed a zone of inhibition at 8 µg/disc of 26 mm.
`Cn1c([N+](=O)[O-])cnc1-c1nnc(N2CC[S+]([O-])CC2)s1` showed a zone of inhibition at 8 µg/disc of 6 mm.
`O=[N+]([O-])c1ccc(-c2nnc(N3CCS(=O)(=O)CC3)s2)s1` gave a zone of inhibition at 8 µg/disc of 6 mm.
`Cn1c([N+](=O)[O-])cnc1-c1nnc(N2CCSCC2)s1` showed a zone of inhibition at 8 µg/disc of 24 mm.

What follows are compounds tested on Helicobacter pylori (assay: Antibacterial activity against Helicobacter pylori clinical isolates at 32 ug/disk after 3 to 5 days by filter paper disk diffusion method). Conditions: read-out: IZ.
Assay type: functional
With `O=[N+]([O-])c1ccc(-c2nnc(N3CCOCC3)s2)o1` the zone of inhibition at 32 µg/disc was 40 mm.
`O=[N+]([O-])c1ccc(-c2nnc(N3CCCCC3)s2)o1` showed a zone of inhibition at 32 µg/disc of 36.5 mm.
`Cn1c([N+](=O)[O-])cnc1-c1nnc(N2CCOCC2)s1` showed a zone of inhibition at 32 µg/disc of 33.5 mm.
Compound `Cn1c([N+](=O)[O-])cnc1-c1nnc(N2CCSCC2)s1` has a zone of inhibition at 32 µg/disc of 32.4 mm.

The compounds below were run on Helicobacter pylori (assay: Antibacterial activity against metronidazole-resistant Helicobacter pylori at 16 ug/disk after 3 to 5 days by filter paper disk diffusion method). Conditions: read-out: IZ.
Assay type: functional
Compound `O=[N+]([O-])c1ccc(-c2nnc(N3CCCCC3)s2)s1` has a zone of inhibition at 16 µg/disc of 6 mm.
`O=[N+]([O-])c1ccc(-c2nnc(N3CCOCC3)s2)s1` gave a zone of inhibition at 16 µg/disc of 6 mm.
`O=[N+]([O-])c1ccc(-c2nnc(N3CCOCC3)s2)o1` was tested, and the zone of inhibition at 16 µg/disc was 33 mm.
Compound `O=[N+]([O-])c1ccc(-c2nnc(N3CCCCC3)s2)o1` has a zone of inhibition at 16 µg/disc of 32 mm.
Compound `Cn1c([N+](=O)[O-])cnc1-c1nnc(N2CCOCC2)s1` has a zone of inhibition at 16 µg/disc of 31 mm.
`Cn1c([N+](=O)[O-])cnc1-c1nnc(N2CC[S+]([O-])CC2)s1` was tested, and the zone of inhibition at 16 µg/disc was 15 mm.
`O=[N+]([O-])c1ccc(-c2nnc(N3CCS(=O)(=O)CC3)s2)s1` showed a zone of inhibition at 16 µg/disc of 6 mm.
With `Cn1c([N+](=O)[O-])cnc1-c1nnc(N2CCSCC2)s1` the zone of inhibition at 16 µg/disc was 27 mm.

The compounds below were run on Helicobacter pylori (assay: Antibacterial activity against Helicobacter pylori clinical isolates at 0.5 ug/disk after 3 to 5 days by filter paper disk diffusion method). Conditions: read-out: IZ.
Assay type: functional
`O=[N+]([O-])c1ccc(-c2nnc(N3CCOCC3)s2)o1` showed a zone of inhibition at 0.5 µg/disc of 10.8 mm.
In the case of `O=[N+]([O-])c1ccc(-c2nnc(N3CCCCC3)s2)o1`, the zone of inhibition at 0.5 µg/disc is reported as 13.7 mm.
`Cn1c([N+](=O)[O-])cnc1-c1nnc(N2CCOCC2)s1` gave a zone of inhibition at 0.5 µg/disc of 13.7 mm.
Compound `Cn1c([N+](=O)[O-])cnc1-c1nnc(N2CCSCC2)s1` has a zone of inhibition at 0.5 µg/disc of 9.9 mm.

These compounds were tested on Helicobacter pylori (assay: Antibacterial activity against Helicobacter pylori clinical isolates at 16 ug/disk after 3 to 5 days by filter paper disk diffusion method). Conditions: read-out: IZ.
Assay type: functional
`O=[N+]([O-])c1ccc(-c2nnc(N3CCOCC3)s2)o1` was tested, and the zone of inhibition at 16 µg/disc was 36.6 mm.
`O=[N+]([O-])c1ccc(-c2nnc(N3CCCCC3)s2)o1` was tested, and the zone of inhibition at 16 µg/disc was 33.5 mm.
Work on `Cn1c([N+](=O)[O-])cnc1-c1nnc(N2CCOCC2)s1` yielded a zone of inhibition at 16 µg/disc of 30.6 mm.
In the case of `Cn1c([N+](=O)[O-])cnc1-c1nnc(N2CCSCC2)s1`, the zone of inhibition at 16 µg/disc is reported as 30.4 mm.

These compounds were tested on Helicobacter pylori (assay: Antibacterial activity against Helicobacter pylori clinical isolates at 2 ug/disk after 3 to 5 days by filter paper disk diffusion method). Conditions: read-out: IZ.
Assay type: functional
With `O=[N+]([O-])c1ccc(-c2nnc(N3CCOCC3)s2)o1` the zone of inhibition at 2 µg/disc was 23.7 mm.
For `O=[N+]([O-])c1ccc(-c2nnc(N3CCCCC3)s2)o1`, the zone of inhibition at 2 µg/disc was 24.9 mm.
Compound `Cn1c([N+](=O)[O-])cnc1-c1nnc(N2CCOCC2)s1` has a zone of inhibition at 2 µg/disc of 21.3 mm.
`Cn1c([N+](=O)[O-])cnc1-c1nnc(N2CCSCC2)s1` was tested, and the zone of inhibition at 2 µg/disc was 20 mm.

Each compound was assayed on Helicobacter pylori (assay: Antibacterial activity against metronidazole-resistant Helicobacter pylori at 32 ug/disk after 3 to 5 days by filter paper disk diffusion method). Conditions: read-out: IZ.
Assay type: functional
Work on `O=[N+]([O-])c1ccc(-c2nnc(N3CCCCC3)s2)s1` yielded a zone of inhibition at 32 µg/disc of 6 mm.
In the case of `O=[N+]([O-])c1ccc(-c2nnc(N3CCOCC3)s2)s1`, the zone of inhibition at 32 µg/disc is reported as 6 mm.
`O=[N+]([O-])c1ccc(-c2nnc(N3CCOCC3)s2)o1` showed a zone of inhibition at 32 µg/disc of 48 mm.
In the case of `O=[N+]([O-])c1ccc(-c2nnc(N3CCCCC3)s2)o1`, the zone of inhibition at 32 µg/disc is reported as 34 mm.
In the case of `Cn1c([N+](=O)[O-])cnc1-c1nnc(N2CCOCC2)s1`, the zone of inhibition at 32 µg/disc is reported as 33 mm.
With `Cn1c([N+](=O)[O-])cnc1-c1nnc(N2CC[S+]([O-])CC2)s1` the zone of inhibition at 32 µg/disc was 21 mm.
`O=[N+]([O-])c1ccc(-c2nnc(N3CCS(=O)(=O)CC3)s2)s1` showed a zone of inhibition at 32 µg/disc of 6 mm.
Compound `Cn1c([N+](=O)[O-])cnc1-c1nnc(N2CCSCC2)s1` has a zone of inhibition at 32 µg/disc of 30 mm.
